Results as given in US20070117836A1, “NAPTHALIMIDE DERIVATIVES, METHODS FOR THEIR PRODUCTION AND PHARMACEUTICAL COMPOSITIONS THEREFROM” (priority 2004, published 2007).
Where two headings read alike, the source gives them in different places.

How the values were obtained:
[1] = tested on: Six human cancer cell lines (Hs683, U-373MG, HCT-15, LoVo, A549, MCF-7); test: MTT test of overall cell growth; assay type: cell-based; conditions: range of molar concentrations giving 50% inhibition of overall tumor cells growth, MTT, 72 hours incubation, six human cancer cell lines, read-out: IC50
Procedure: In order to characterize the in vitro activity of the compounds of the invention, MTT tests were performed to indirectly and rapidly measure, i.e. within 5 days, the effect of such a compound on the overall cell growth. The test measures the number of metabolically active living cells that are able to transform the yellow product 3-(4,5-dimethylthiazol-2-yl)-2,5-diphenyl tetrazolium bromide (herein referred as MTT) into the blue product formazan dye by mitochondrial reduction. The amount of formazan obtained at the end of the experiment was measured by means of a spectrophotometer and is directly proportional to the number of living cells. Determination of the optical density enables a quantitative measurement of the effect of the investigated compounds as compared to the control condition (untreated cells) and/or to other reference compounds (in casu mitonafide and amonafide).
Six human cancer cell lines described in table 1 were used in the MTT tests. These cell lines cover four histological cancer types, being glioma, colon, lung and breast cancers. Cells were allowed to grow in 96-well micro-wells with a flat bottom with an amount of 100 μl of cell suspension per well with 1,000 to 4,000 cells/well depending on the cell type used. Each cell line was seeded in an MEM 5% serum culture medium.
The detailed experimental procedure was as follows: after a 24-hour period of incubation at 37° C., the culture medium was replaced by 100 μl of fresh medium in which the compound to be tested was dissolved at the following molar concentrations: 10^−9 M, 5.10^−9 M, 10^−8 M, 5.10^−8 M, 10^−7 M, 5.10^−7 M, 10^−6 M, 5.10^−6 M and 10^−5 M. Each experiment was repeated 6 times.
After 72 hours of incubation at 37° C. with (experimental conditions) or without (control condition) the compound to be tested, the medium was replaced by 100 μl MTT dissolved in RPMI at a concentration of 1 mg/ml. The micro-wells were subsequently incubated during 3 hours at 37° C. and centrifuged at 400 g during 10 minutes. MTT was removed and formazan crystals formed were dissolved in 100 μl DMSO. The micro-wells were shaken for 5 minutes and read on a spectrophotometer at wavelengths of 570 nm (maximum formazan absorbance) and 630 nm (background noise).
For each experimental condition, the mean optical density was calculated, as well as the percentage of remaining living cells in comparison with the control.

L1210 (Mouse Leukemia) = test: L1210 mouse leukemia model, survival; assay type: in vivo, mice; conditions: median day of death treated/control; for response vs control in vivo at 10 mg/kg / response vs control in vivo at 20 mg/kg / response vs control in vivo at 40 mg/kg / response vs control in vivo at 80 mg/kg / response vs control in vivo at 2.5 mg/kg / response vs control in vivo at 5 mg/kg: Mus musculus, L1210, ip; for response vs control in vivo at 2.5 mg/kg: read-out: T/C (%), dose 2.5 mg/kg intraperitoneally at days 1, 2, 3, 4, 7, 8, 9 and 10; for response vs control in vivo at 5 mg/kg: read-out: T/C (%), dose 5 mg/kg intraperitoneally at days 1, 2, 3, 4, 7, 8, 9 and 10
Procedure: L1210 is a syngeneic model (Mouse Leukemia) which may be used to define an optimal treatment regimen (doses and schedule) for subsequent testing of drugs in more expensive and time-consuming orthotopic human xenograft models. The model was performed with 5 mice per group, said mice being grafted at day 0 and the tested compounds being injected intraperitoneally (at the dose indicated in table 4) at days 1, 2, 3, 4, 7, 8, 9 and 10 respectively. The data shown in table 4 are T/C values which were calculated by dividing the median day of death in a treated group T by the median day of death in the control group C. T/C values of 130% or more (i.e. a prolongation of mice survival of 30% or more) indicate a significant prolongation of survival.
The experimental procedure of example 25 was repeated with compounds of examples 17, 19, 33 and 35, and the data obtained from this experiment are reported in table 7.

in vivo = conditions: mouse
Procedure: (§1) The maximum tolerated dose (herein after MTD) is defined as the maximum amount of a given drug which can be administered acutely (i.e. in one intraperitoneal, intravenous, subcutaneous or oral single dose) to healthy animals, i.e. animals not grafted with tumors. The survival times and weights of the animals are recorded up to 14 days post injection. Five different doses of each drug are used for the determination of the MTD index. […] Each experimental group comprised 3 mice for the determination of the MTD index (expressed in mg/kg).

leukemia models in mice = conditions: background statement; cited from earlier work
[2] = tested on: human tumour xenografts in mice with colon, lung and mammary cancers; conditions: background statement; cited from earlier work
[3] = tested on: primary human solid tumours; conditions: Ajani et al. Invest New Drugs (1988) 6:79-83; cited from earlier work
patients = patients receiving five daily doses; leading to some deaths; cited from earlier work
healthy animals = conditions: single dose to healthy mice, 3 mice per group, survival and weights recorded up to 14 days post injection
Procedure: as §1

[4] = dose 10 mg/kg intraperitoneally at days 1, 2, 3, 4, 7, 8, 9 and 10, read-out: T/C (%)
[5] = dose 20 mg/kg intraperitoneally at days 1, 2, 3, 4, 7, 8, 9 and 10, read-out: T/C (%)
[6] = dose 40 mg/kg intraperitoneally at days 1, 2, 3, 4, 7, 8, 9 and 10, read-out: T/C (%)
[7] = dose 80 mg/kg intraperitoneally at days 1, 2, 3, 4, 7, 8, 9 and 10, read-out: T/C (%)
[8] = read-out: T/C (%), dose 10 mg/kg intraperitoneally at days 1, 2, 3, 4, 7, 8, 9 and 10
[9] = read-out: T/C (%), dose 20 mg/kg intraperitoneally at days 1, 2, 3, 4, 7, 8, 9 and 10
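Wherever MTD is given: highest single acute dose (intraperitoneal, intravenous, subcutaneous or oral) tolerated by tumor-free mice, assessed across five dose levels per drug.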

Compound | IC50 ([1]; Homo sapiens, 72 h) | response vs control in vivo at 10 mg/kg (L1210 (Mouse Leukemia); [4]) | response vs control in vivo at 20 mg/kg (L1210 (Mouse Leukemia); [5]) | response vs control in vivo at 40 mg/kg (L1210 (Mouse Leukemia); [6]) | response vs control in vivo at 80 mg/kg (L1210 (Mouse Leukemia); [7]) | MTD at 14 days (in vivo; intraperitoneal) | MTD at 14 days (in vivo) | also measured
CN(C)CCN1C(=O)c2cccc3cc(NC(=O)Nc4ccc5c(c4)OCO5)cc(c23)C1=O [Example 9] | 5 to 10 µM | 113% | 140% | 160% | 187% | > 160 mg/kg | – | –
CN(C)CCN1C(=O)c2cccc3cc(N=Cc4cc5c(cc4[N+](=O)[O-])OCO5)cc(c23)C1=O [Example 35, 5-{[(1Z)-benzo([1,3]dioxol-6-nitro)-5-yl-methylene]amino}-N-(2-[2-dimethylamino)ethyl]-1H-benzo[de]isoquinolin-1,3(2H)-dione] | > 10 µM | 213% | 193% | 280% | > 300% | – | 80 mg/kg | –
CN(C)CCN1C(=O)c2cccc3cc(NC(=O)NC(=O)C(Cl)(Cl)Cl)cc(c23)C1=O.Cl [Example 33, 2,2,2-trichloro-N-[({2-[2-(dimethylamino)ethyl]-1,3-dioxo-2,3-dihydro-1H-benzo[de]isoquinolin-5-yl}amino)carbonyl]acetamide hydrochloride] | – | – | – | – | – | – | 120 mg/kg | IC50 ([1]; hydrochloride): 5 to 10 µM; T/C (%) (L1210 (Mouse Leukemia); dose 10 mg/kg intraperitoneally at days 1, 2, 3, 4, 7, 8, 9 and 10): 148%; T/C (%) (L1210 (Mouse Leukemia); dose 20 mg/kg intraperitoneally at days 1, 2, 3, 4, 7, 8, 9 and 10): 138%; T/C (%) (L1210 (Mouse Leukemia); dose 40 mg/kg intraperitoneally at days 1, 2, 3, 4, 7, 8, 9 and 10): 186%; T/C (%) (L1210 (Mouse Leukemia); dose 80 mg/kg intraperitoneally at days 1, 2, 3, 4, 7, 8, 9 and 10): 200%
CN(C)CCN1C(=O)c2cccc3cc([N+](=O)[O-])cc(c23)C1=O [mitonafide, reference compound] | 1 to 5 µM | – | – | – | – | – | 40 mg/kg | response vs control in vivo at 2.5 mg/kg (L1210 (Mouse Leukemia)): 107%; response vs control in vivo at 5 mg/kg (L1210 (Mouse Leukemia)): 140%; response vs control in vivo at 10 mg/kg (L1210 (Mouse Leukemia); [8]): 120%; response vs control in vivo at 20 mg/kg (L1210 (Mouse Leukemia); [9]): 193%
CN(C)CCN1C(=O)c2cccc3cc(NC(=O)Nc4ccc(OC(F)(F)F)cc4)cc(c23)C1=O [Example 10] | 1 to 5 µM | 117% | 156% | 139% | 194% | > 160 mg/kg | – | –
CN(C)CCN1C(=O)c2cccc3cc(N=Cc4ccc5c(c4)OCO5)cc(c23)C1=O [Example 17, 5-{[(1Z)-1,3-benzodioxol-5-ylmethylene]amino}-N-{2-[2-(dimethylamino)ethyl]-1H-benzo[de]isoquinoline-1,3(2H)-dione] | > 10 µM | 120% | 233% | 207% | 280% | 80 mg/kg | – | –
CN(C)CCN1C(=O)c2cccc3cc(NC(=O)NC(=O)C(Cl)(Cl)Cl)cc(c23)C1=O [Example 2, 2,2,2-trichloro-N-[({2-[2-(dimethylamino)ethyl]-1,3-dioxo-2,3-dihydro-1H-benzo[de]isoquinolin-5-yl}amino)carbonyl]acetamide] | – | – | – | – | – | – | > 160 mg/kg | IC50 [1]: 0.5 to 1 µM; response vs control in vivo at 10 mg/kg (L1210 (Mouse Leukemia); [8]): 128%; response vs control in vivo at 20 mg/kg (L1210 (Mouse Leukemia); [9]): 156%; response vs control in vivo at 40 mg/kg (L1210 (Mouse Leukemia); read-out: T/C (%), dose 40 mg/kg intraperitoneally at days 1, 2, 3, 4, 7, 8, 9 and 10): 177%; response vs control in vivo at 80 mg/kg (L1210 (Mouse Leukemia); read-out: T/C (%), dose 80 mg/kg intraperitoneally at days 1, 2, 3, 4, 7, 8, 9 and 10): 194%
CN(C)CCN1C(=O)c2cccc3cc(N)cc(c23)C1=O [amonafide, N-(2-dimethylaminoethyl)-3-amino-1,8-naphthalimide, reference compound] | 1 to 5 µM | – | – | – | – | – | 40 mg/kg | response vs control in vivo at 2.5 mg/kg (L1210 (Mouse Leukemia)): 120%; response vs control in vivo at 5 mg/kg (L1210 (Mouse Leukemia)): 140%; response vs control in vivo at 10 mg/kg (L1210 (Mouse Leukemia); [8]): 120%; response vs control in vivo at 20 mg/kg (L1210 (Mouse Leukemia); [9]): 120%; activity in leukemia models in mice (leukemia models in mice): only moderate activity; activity in human tumour xenografts in mice [2]: no activity; activity in primary human solid tumours in vitro [3]: poor activity; myelotoxicity in patients (patients): substantial myelotoxicity
CN(C)CCN1C(=O)c2cccc3cc(NC(=O)Nc4ccc(C#N)cc4)cc(c23)C1=O [Example 7, N-[2-[2-(dimethylamino)ethyl]-1,3-dioxo-2,3-dihydro-1H-benzo[de]isoquinolin-5-yl]-N′-(4-cyanophenyl)urea] | 1 to 5 µM | 140% | 147% | 147% | 213% | > 160 mg/kg | – | –
CN(C)CCN1C(=O)c2cccc3cc(/N=C\c4cc(O)ccc4O)cc(c23)C1=O [Example 19, 2-[2-(dimethylamino)ethyl]-5-{[(1Z)-(2,5-dihydroxyphenyl)methylene]amino}-1H-benzo[de]isoquinoline-1,3(2H)-dione] | 10 µM | 150% | 144% | 231% | 275% | 80 mg/kg | – | –
CN(C)CCN1C(=O)c2cccc3cc(NCc4cc5c(cc4[N+](=O)[O-])OCO5)cc(c23)C1=O [Example 40] | > 10 µM | – | – | – | – | – | > 80 mg/kg | –
CN(C)CCN1C(=O)c2cccc3cc(/N=C\c4cc(O)ccc4O)cc(c23)C1=O.Cl [Example 34] | – | – | – | – | – | – | – | MTD (healthy animals): 40 mg/kg
